Source: ChEMBL document CHEMBL1201862, “PubChem BioAssay data set” (2004)
Activity calls are given as the source filed them.

Columns and labels:
[1] = inhibitors of Vif binding to APOBEC3G peptide, primary screen, biochemical, TR-FRET, GST-Vif 1-94, biotin-A3G peptide, dose response retest (AID 1117319); format: functional;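 note: TR-FRET signal of purified GST-Vif binding a biotinylated A3G peptide; inhibitors lower the FRET signal by blocking Vif and A3G binding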
[2] = molecular target: T1, RNA-binding protein pos-1 (Caenorhabditis elegans, UniProt G5EF15); test: inhibitors of POS-1/mex-3 RNA binding, dose response, biochemical, fluorescence polarization (AID 1964);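 note: purified POS-1 fused to maltose binding protein made in E. coli; potency of compounds blocking POS-1 binding to fluorescent RNA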
T1 sequence (G5EF15 whole entry): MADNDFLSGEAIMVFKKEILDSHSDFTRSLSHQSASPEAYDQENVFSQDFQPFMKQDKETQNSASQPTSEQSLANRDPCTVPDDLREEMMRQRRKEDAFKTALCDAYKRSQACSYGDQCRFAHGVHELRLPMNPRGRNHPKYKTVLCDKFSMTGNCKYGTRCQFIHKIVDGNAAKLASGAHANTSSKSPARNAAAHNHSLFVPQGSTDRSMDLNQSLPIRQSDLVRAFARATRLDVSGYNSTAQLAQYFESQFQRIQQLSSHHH

[3] = molecular target: T2, Zinc finger protein mex-5 (Caenorhabditis elegans, UniProt Q9XUB2); test: MEX-5/TCR-2 RNA interaction inhibitors, dose response, biochemical, C. elegans, fluorescence polarization (AID 1960)
T2 sequence (Q9XUB2 whole entry): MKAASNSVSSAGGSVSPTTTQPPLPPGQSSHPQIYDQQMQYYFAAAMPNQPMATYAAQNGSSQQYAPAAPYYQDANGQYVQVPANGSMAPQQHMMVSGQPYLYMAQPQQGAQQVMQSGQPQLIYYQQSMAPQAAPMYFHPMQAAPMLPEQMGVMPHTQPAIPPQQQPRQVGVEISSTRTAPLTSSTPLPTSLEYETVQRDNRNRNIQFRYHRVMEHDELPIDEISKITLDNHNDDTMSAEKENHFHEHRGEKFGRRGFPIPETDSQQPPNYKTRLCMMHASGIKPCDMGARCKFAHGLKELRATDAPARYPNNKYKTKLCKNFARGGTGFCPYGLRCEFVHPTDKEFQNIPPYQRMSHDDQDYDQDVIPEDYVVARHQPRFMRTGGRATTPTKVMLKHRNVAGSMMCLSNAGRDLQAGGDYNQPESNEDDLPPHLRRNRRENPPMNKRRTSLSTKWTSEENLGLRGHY

[4] = CRF-BP/CRF-R2 complex antagonists, dose response, cell-based, uHTS hits, 384-well (AID 651639); format: functional, Homo sapiens; conditions: read-out: IC50_Mean
[5] = molecular target: T3, Corticotropin-releasing factor receptor 2/Corticotropin-releasing factor-binding protein (Homo sapiens, UniProt P24387+Q13324); test: activators of CRF receptor 2 with binding protein – uHTS hits, confirmation (AID 602473); format: functional; conditions: read-out: EC50_Mean
T3 sequence (Q13324 whole entry): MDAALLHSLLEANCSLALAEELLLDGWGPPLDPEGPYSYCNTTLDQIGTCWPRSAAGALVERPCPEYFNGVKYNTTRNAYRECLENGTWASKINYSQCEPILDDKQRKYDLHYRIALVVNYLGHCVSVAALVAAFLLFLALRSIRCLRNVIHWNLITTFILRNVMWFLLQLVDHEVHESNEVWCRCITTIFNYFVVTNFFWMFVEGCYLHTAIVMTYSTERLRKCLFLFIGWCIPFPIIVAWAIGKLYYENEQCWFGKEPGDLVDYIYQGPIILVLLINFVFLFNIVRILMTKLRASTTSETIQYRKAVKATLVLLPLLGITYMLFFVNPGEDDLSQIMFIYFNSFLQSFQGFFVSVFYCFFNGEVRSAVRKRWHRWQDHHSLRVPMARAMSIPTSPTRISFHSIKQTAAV
T3 sequence (P24387 whole entry): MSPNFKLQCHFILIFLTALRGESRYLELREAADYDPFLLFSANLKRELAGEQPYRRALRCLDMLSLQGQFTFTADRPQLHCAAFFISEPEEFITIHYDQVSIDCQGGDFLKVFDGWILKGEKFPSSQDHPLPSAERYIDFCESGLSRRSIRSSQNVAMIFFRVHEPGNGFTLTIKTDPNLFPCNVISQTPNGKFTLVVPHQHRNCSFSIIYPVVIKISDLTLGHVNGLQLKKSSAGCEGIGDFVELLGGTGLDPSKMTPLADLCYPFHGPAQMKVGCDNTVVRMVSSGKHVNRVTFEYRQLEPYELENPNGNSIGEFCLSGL

[6] = molecular target: T3, Corticotropin-releasing factor receptor 2/Corticotropin-releasing factor-binding protein; test: Dose Response confirmation of uHTS hits for small molecule antagonists of the CRF-binding protein and CRF-R2 receptor complex.; format: functional; conditions: read-out: IC50_Mean
[7] = cells; format: functional, cell-based
[8] = molecular target: T4, Nuclear receptor subfamily 0 group B member 1 (Homo sapiens, UniProt P51843); format: functional, cell-based;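 note: HEK293T cells transfected with SF-1 and DAX-1 plus StAR promoter luciferase reporter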
T4 sequence (P51843 whole entry): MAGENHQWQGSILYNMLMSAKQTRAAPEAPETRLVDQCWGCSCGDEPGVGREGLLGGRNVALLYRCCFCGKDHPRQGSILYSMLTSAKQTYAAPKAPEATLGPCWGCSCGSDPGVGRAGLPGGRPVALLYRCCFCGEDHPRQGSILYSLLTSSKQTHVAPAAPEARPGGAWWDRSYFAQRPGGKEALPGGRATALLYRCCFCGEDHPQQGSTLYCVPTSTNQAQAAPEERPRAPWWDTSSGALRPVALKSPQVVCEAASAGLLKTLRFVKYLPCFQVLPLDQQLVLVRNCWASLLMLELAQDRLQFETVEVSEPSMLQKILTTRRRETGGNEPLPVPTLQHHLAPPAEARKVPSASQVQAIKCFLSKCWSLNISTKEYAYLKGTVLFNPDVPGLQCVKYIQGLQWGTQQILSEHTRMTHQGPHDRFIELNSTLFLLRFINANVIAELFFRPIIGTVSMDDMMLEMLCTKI

[9] = HEK293T cytotoxicity, dose response, cytotoxicity control for miR-122 modulator project, cell-based, inhibitor set, cherry-pick, set 2 (AID 720697); format: functional
[10] = inhibitors of PGC1a acetylation in cells, dose response, cell-based, cherry-picked samples (AID 720514); format: functional;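 note: potency may reflect raised or lowered acetylation signal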
[11] = molecular target: Voltage-dependent T-type calcium channel subunit alpha-1H (Homo sapiens, UniProt O95180); format: functional;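 note: channel activity triggered by adding a high calcium stimulation buffer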
Voltage-dependent T-type calcium channel subunit alpha-1H, sequence (O95180 whole entry): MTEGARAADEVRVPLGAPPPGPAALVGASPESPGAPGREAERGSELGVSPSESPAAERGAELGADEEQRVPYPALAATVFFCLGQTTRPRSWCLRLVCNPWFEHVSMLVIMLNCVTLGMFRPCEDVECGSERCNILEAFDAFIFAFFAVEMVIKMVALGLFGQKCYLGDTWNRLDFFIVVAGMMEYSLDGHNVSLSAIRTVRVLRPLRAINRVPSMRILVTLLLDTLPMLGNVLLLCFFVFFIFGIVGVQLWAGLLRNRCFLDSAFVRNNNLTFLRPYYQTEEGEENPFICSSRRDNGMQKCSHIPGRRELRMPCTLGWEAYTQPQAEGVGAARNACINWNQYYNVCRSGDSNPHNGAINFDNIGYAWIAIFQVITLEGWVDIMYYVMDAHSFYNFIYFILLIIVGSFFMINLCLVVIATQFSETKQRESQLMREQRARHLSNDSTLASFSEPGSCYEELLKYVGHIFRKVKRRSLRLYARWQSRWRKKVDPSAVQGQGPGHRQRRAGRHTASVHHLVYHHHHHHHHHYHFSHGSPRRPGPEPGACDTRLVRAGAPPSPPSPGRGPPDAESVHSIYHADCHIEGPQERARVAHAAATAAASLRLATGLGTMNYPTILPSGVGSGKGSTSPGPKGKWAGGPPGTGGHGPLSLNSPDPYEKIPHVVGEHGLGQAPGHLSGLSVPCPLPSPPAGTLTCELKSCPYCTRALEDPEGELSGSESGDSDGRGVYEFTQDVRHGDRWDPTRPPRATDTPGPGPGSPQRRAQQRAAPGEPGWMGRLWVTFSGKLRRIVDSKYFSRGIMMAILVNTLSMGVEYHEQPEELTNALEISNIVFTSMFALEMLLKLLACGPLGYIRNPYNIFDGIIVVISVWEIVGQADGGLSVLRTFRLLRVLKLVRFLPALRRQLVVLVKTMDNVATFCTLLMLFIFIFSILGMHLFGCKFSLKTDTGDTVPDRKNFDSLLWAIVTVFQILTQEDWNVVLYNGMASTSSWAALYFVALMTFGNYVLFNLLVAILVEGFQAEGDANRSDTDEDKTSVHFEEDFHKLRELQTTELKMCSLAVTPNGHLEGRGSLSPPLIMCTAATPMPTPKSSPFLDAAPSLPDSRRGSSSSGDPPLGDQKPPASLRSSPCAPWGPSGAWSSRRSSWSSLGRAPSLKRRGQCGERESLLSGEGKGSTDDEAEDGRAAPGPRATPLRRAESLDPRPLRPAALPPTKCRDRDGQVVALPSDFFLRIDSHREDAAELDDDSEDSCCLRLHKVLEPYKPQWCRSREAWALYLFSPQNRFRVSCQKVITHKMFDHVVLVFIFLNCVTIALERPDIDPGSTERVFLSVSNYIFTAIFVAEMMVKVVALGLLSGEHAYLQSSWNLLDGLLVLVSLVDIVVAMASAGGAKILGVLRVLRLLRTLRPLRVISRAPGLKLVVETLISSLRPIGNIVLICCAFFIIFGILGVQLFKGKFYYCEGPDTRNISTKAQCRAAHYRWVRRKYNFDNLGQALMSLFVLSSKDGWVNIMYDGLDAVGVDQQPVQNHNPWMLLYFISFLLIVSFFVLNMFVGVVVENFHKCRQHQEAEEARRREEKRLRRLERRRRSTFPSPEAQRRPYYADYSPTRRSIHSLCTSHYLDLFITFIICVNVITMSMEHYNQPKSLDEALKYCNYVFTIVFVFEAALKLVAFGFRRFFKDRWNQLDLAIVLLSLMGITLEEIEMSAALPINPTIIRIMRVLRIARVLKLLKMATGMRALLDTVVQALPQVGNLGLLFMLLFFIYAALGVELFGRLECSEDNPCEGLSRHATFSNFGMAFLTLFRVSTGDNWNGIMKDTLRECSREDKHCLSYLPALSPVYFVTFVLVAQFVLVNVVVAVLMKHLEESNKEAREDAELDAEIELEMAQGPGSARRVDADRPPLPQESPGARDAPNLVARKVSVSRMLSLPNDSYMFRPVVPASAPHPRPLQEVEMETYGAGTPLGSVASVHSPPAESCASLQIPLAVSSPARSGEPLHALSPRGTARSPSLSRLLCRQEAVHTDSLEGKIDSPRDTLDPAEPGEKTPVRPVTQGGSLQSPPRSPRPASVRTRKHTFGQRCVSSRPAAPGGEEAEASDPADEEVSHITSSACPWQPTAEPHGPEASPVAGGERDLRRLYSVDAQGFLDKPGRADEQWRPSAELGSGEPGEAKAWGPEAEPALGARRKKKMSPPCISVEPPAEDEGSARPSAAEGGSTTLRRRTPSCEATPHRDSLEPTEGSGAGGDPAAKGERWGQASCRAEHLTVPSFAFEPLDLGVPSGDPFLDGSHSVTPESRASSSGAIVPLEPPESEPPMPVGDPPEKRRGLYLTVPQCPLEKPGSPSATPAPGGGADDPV

[12] = cells; format: functional
[13] = THP-1 cell cytotoxicity, dose response, cytotoxicity control for non-replicating M. tuberculosis project (AID 489025); format: functional
[14] = molecular target: T5, Polyadenylate-binding protein 1 (Homo sapiens, UniProt P11940); test: PABP1 MLLE–PAM2 interaction inhibitors, dose response, miRNA deadenylation inhibitor project, biochemical, fluorescence polarization, Cy5-PAM2 peptide, secondary (AID 602260); format: functional; conditions: read-out: IC50_Mean
T5 sequence (P11940 whole entry): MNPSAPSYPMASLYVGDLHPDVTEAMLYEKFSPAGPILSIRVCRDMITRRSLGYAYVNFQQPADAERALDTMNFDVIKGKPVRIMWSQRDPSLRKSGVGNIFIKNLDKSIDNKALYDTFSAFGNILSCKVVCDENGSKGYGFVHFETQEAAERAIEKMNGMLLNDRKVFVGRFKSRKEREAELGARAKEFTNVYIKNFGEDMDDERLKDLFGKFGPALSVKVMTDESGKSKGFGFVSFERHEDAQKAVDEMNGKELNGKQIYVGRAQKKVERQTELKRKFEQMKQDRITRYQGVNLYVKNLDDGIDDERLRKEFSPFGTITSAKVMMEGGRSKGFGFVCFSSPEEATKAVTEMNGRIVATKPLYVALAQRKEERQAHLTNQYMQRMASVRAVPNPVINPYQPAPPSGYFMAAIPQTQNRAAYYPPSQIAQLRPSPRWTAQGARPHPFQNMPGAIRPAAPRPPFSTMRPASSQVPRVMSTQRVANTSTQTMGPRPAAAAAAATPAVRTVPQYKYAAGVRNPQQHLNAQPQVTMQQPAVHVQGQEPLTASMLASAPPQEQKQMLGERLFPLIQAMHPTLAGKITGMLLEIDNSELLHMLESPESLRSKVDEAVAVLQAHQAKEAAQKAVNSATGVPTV

[15] = test system: Vero; test: cells; format: functional; conditions: Chlorocebus sabaeus
[16] = molecular target: T5, Polyadenylate-binding protein 1; test: PABP1 MLLE–PAM2 binding inhibitor potency, dose response, biochemical, fluorescence polarization, FITC-PAM2 peptide (AID 602259); format: functional; conditions: read-out: IC50_Mean
[17] = Vero E6 cell cytotoxicity, dose response, cytotoxicity control for non-replicating M. tuberculosis project, secondary assay (AID 492998); format: functional, VeroE6; conditions: Vero C1008
[18] = cells
[19] = molecular target: T6, Oxysterols receptor LXR-beta (Homo sapiens, UniProt P55055); format: functional, cell-based;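 note: Cell-based luminescence dose-response assay of agonist activity at LXR, run as a confirmatory counterscreen to a daf-12 agonist screen; HEK293 cells with Gal4-LXR fusion and GAL4-driven luciferase reporter; agonist potency from rising luciferase signal of a Gal4-LXR reporter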
T6 sequence (P55055 whole entry): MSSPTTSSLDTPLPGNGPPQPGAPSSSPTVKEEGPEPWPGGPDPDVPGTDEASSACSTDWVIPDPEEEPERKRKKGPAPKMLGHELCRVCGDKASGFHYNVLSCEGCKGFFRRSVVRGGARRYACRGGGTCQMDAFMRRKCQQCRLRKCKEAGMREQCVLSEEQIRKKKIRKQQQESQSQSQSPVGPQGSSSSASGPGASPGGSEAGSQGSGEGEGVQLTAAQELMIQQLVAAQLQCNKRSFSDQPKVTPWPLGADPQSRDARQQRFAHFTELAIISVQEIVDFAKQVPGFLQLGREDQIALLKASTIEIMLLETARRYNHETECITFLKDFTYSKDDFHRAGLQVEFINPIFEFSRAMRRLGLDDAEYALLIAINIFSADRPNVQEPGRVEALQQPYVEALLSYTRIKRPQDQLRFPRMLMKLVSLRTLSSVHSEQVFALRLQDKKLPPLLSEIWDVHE

[20] = molecular target: T7, Estrogen receptor beta (Homo sapiens, UniProt Q92731);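 note: recombinant ER-beta bound to coactivator SRC1 peptide in presence of estradiol agonist; inhibitors block coactivator peptide binding and lower the FRET signal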
T7 sequence (Q92731 whole entry): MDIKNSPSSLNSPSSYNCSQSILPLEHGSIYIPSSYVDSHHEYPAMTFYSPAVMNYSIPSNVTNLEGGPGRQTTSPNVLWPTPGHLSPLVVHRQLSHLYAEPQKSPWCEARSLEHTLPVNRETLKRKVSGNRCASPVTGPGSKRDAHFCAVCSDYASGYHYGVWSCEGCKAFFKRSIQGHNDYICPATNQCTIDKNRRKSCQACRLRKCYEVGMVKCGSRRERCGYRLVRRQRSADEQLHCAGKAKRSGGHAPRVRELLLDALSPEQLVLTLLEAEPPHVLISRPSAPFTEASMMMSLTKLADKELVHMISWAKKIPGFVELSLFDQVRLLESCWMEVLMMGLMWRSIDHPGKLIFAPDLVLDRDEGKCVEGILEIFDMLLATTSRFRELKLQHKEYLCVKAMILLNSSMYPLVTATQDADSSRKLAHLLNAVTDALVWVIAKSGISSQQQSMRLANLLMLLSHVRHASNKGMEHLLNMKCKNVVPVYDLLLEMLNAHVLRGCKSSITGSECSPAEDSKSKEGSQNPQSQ

[21] = molecular target: T7, Estrogen receptor beta; test: ERβ–SRC-3 coactivator interaction inhibitors, confirmation, orthogonal assay, biochemical, ELISA, streptavidin-HRP readout (AID 1060)
[22] = HepG2 cell cytotoxicity, dose response, cytotoxicity control for non-replicating M. tuberculosis project (AID 489018); format: functional; conditions: Mycobacterium tuberculosis

## CCOC(=O)C1Nc2ccc(Br)cc2C2C=CCC12 (configuration not stated)
[1]
  IC50: > 100 µM (active)
[2]
  EC50: > 300 µM (not active)
[3]
  EC50: 46 µM (active)

## Cc1cc(C)c(C)c(S(=O)(=O)Nc2ccccc2C(=O)O)c1C
[4]
  IC50: > 20 µM (inactive)
[5]
  EC50: > 53 µM (inactive)
[6]
  IC50: 16.3 µM (active)

## CCOC(=O)CSc1nnc(-c2ccccc2NC(=O)c2ccccc2)o1
[1]
  IC50: > 100 µM (active)

## C=C1[C@@H](C)C2[C@H](Cc3ccccc3)NC(=O)[C@]23[C@H](OC(C)=O)/C=C/[C@@](C)(O)C(=O)[C@@H](C)C/C=C/[C@H]3[C@@H]1O (some centres not stated)
[7]
  IC50: > 67.5 µM (inactive)
[8]
  IC50: 14 µM (inactive)

## CO[C@@H]1CN(C)C(=O)c2cc(NC(=O)NC(C)C)ccc2OC[C@H](C)N(Cc2cncnc2)C[C@H]1C
[9]
  AC50: 0.472 µM (active)

## COC(=O)c1cc(OC)c(OC)cc1NC(=O)c1ccco1
[4]
  IC50: > 20 µM (inactive)
[5]
  EC50: > 53 µM (inactive)
[6]
  IC50: 38.9 µM (active)

## CCc1c(C)sc(NC(=O)c2cc(-c3ccco3)on2)c1C#N
[1]
  IC50: > 100 µM (active)

## c1ccc2c(c1)OCCOCCOCCOCCOc1ccccc1OCCOCCOCCO2
[4]
  IC50: > 20 µM (inactive)
[5]
  EC50: 15.4 µM (active)
[6]
  IC50: 7.94 µM (active)

## COc1ccccc1C1c2c(C)nn(-c3ccccc3)c2NC(=O)C1NC(=O)c1ccccc1 (configuration not stated)
[10]
  AC50: 23.5 µM (active)

## Cc1cc2ncn(CCCCOc3ccccc3)c2cc1C
[11]
  EC50: 7.27 µM (active)

## Clc1ccc(Cl)c(Oc2ccc(Oc3nc(Cl)ccc3Cl)cc2)n1
[4]
  IC50: 11.4 µM (active)
[5]
  EC50: > 53 µM (inactive)
[6]
  IC50: 0.727 µM (active)

## CCCCN(CCCC)S(=O)(=O)c1ccc(C(=O)Nc2nnc(CSC)o2)cc1
[11]
  EC50: 2.82 µM (active)

## Cc1nn(Cc2ccc(Cl)c(Cl)c2)c(C)c1NC(=O)c1cc(CC(C)C)on1
[11]
  EC50: 1.28 µM (active)

## CCN1CSC(=S)N(Cc2ccc(OC)cc2)C1
[12]
  IC50: 11.8 µM (active)
[13]
  CC50: 9.8 µM (active)
[14]
  IC50: > 66 µM (inactive)
[15]
  CC50: 12.1 µM (active)
[16]
  IC50: > 66 µM (inactive)
[17]
  CC50: 6.33 µM (active)

## Cc1cc2n(n1)C(c1cn(-c3ccccc3)nc1C)Nc1c(C)cccc1-2 (configuration not stated)
[9]
  AC50: 0.562 µM (active)

## C/C(=N/NC(=O)c1ccc2c(c1)OCO2)c1ccc(NC(=O)c2ccc(F)cc2)cc1
[7]
  IC50: > 67.5 µM (inactive)
[8]
  IC50: > 67.5 µM (inactive)

## O=C1C(=Cc2ccccc2Cl)CCc2ccccc21
[7]
  IC50: > 67.5 µM (inactive)
[8]
  IC50: > 67.5 µM (inactive)

## CCN1C(=O)CS/C1=C(\C#N)S(=O)(=O)c1ccccc1
[1]
  IC50: > 100 µM (active)

## COc1ccc(/C=C/C(=O)Nc2c(C)nn(C)c2C)cc1COc1ccc(Br)cc1
[4]
  IC50: > 20 µM (inactive)
[5]
  EC50: > 53 µM (inactive)
[6]
  IC50: 16.1 µM (active)

## Cc1[nH]n(C(N)=S)c(=O)c1/N=N/c1ccc(Br)cc1
[18]
  EC50: > 67.5 µM (inactive)
[19]
  EC50: > 67.5 µM (inactive)

## CCOC(=O)Cc1csc(NC(=O)Cc2cccs2)n1
[20]
  IC50: 5.81 µM (active)
[21]
  IC50: 3.22 µM (not active)

## Cc1ccc(/N=N/c2c(C)[nH]n(C(N)=S)c2=O)cc1C
[18]
  EC50: > 67.5 µM (inactive)
[12]
  IC50: 10.1 µM (active)
[19]
  EC50: > 67.5 µM (inactive)
[22]
  CC50: > 20 µM (active)

## CCC(=O)N1CCN(c2ccc(Cl)cc2NC(=O)Cc2ccccc2)CC1
[11]
  EC50: 10.1 µM (active)

## Cc1ccc(Cc2c(-c3ccc(Br)cc3)nc3cc(C)ccn23)cc1
[7]
  IC50: > 67.5 µM (inactive)
[8]
  IC50: > 67.5 µM (inactive)

## COc1ccccc1C#Cc1ccc2c(c1)O[C@@H](CN(C)Cc1cccnc1)[C@H](C)CN([C@@H](C)CO)S2(=O)=O
[10]
  AC50: 2.25 µM (active)

## CC(=O)Nc1c(O)nc(SCC(=O)Nc2ccc(C(C)=O)cc2)nc1O
[1]
  IC50: > 100 µM (active)
